Experimental data as given in the supplement of paper PMC10307832.

Assays:
Test in all cases: relative viability (nuclei count vs DMSO), 5 days (fraction); higher = more cells survive
[1] = compound: CC(C)(C)c1nc(-c2cccc(NS(=O)(=O)c3c(F)cccc3F)c2F)c(-c2ccnc(N)n2)s1 [Dabrafenib]
Procedure, shortened: (§1)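 Viability is treated-well nuclei as a fraction of vehicle-well nuclei, reported as the median across plates. Before counting, lung cancer cell lines were kept overnight at 37 °C in 1536-well plates, pinned with five √10-spaced library-drug doses on vehicle-anchored plates, and left 5 days without medium change, then fixed, permeabilised and Hoechst-stained in one step, imaged at 4× and counted by MetaXpress. A plate passed only if control CV was below 25% and at least one doubling occurred.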

[2] = compound: NC(=O)c1ccc(N(C(N)=O)c2c(F)cccc2F)nc1-c1ccc(F)cc1F [VX-702]
Procedure, shortened: as §1

[3] = compound: CC(C)(C)c1nc(-c2cccc(NS(=O)(=O)c3c(F)cccc3F)c2F)c(-c2ccnc(N)n2)s1 [Dabrafenib] + COc1cccc2cc(-c3nc([C@H]4CC[C@H](C(=O)O)CC4)n4ncnc(N)c34)[nH]c12 [OSI-027] (partner 0.5 µM)
Procedure, shortened: (§2)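 Relative viability equals treated-well nuclei counts divided by vehicle-well nuclei counts. Counts came from 4× images of lung cancer cell lines grown in 1536-well plates for 5 days after pin-tool dosing on the day after seeding. Dosing used one drug alone or a fixed anchor-drug dose plus five library-drug doses (not always all listed) in √10 steps, and values are medians of duplicate plates.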

[4] = compound: NC(=O)c1ccc(N(C(N)=O)c2c(F)cccc2F)nc1-c1ccc(F)cc1F [VX-702] + Nc1nc2[nH]cc(CCc3ccc(C(=O)N[C@@H](CCC(=O)O)C(=O)O)cc3)c2c(=O)[nH]1 [Pemetrexed] (partner 0.2 µM)
Procedure, shortened: as §2

Row | Cell Line | relative viability ([1]; 0.009487 µM) | relative viability ([1]; 0.03 µM) | relative viability ([1]; 0.09487 µM) | relative viability ([1]; 0.3 µM) | relative viability ([2]; 0.02 µM) | relative viability ([2]; 0.2 µM) | relative viability ([2]; 0.6325 µM) | relative viability ([2]; 2 µM) | relative viability ([3]; first compound 0.009487 µM) | relative viability ([3]; first compound 0.03 µM) | relative viability ([3]; first compound 0.09487 µM) | relative viability ([3]; first compound 0.3 µM) | relative viability ([4]; first compound 0.02 µM) | relative viability ([4]; first compound 0.2 µM) | relative viability ([4]; first compound 0.6325 µM) | relative viability ([4]; first compound 2 µM) | relative viability ([1]; 0.003 µM) | relative viability ([3]; first compound 0.003 µM)
1 | NCI-H2347 | 1.07 | 0.877 | 0.811 | 0.89 | 1.05 | 1.1 | 1.04 | 1.01 | 0.514 | 0.254 | 0.394 | 0.416 | 0.425 | 0.43 | 0.438 | 0.415 |  | 
2 | NCI-H2023 | 1.01 | 1.01 | 0.948 | 1.07 | 1.03 | 1.04 | 1.01 | 1.18 | 0.455 | 0.385 | 0.355 | 0.395 | 0.231 | 0.264 | 0.199 | 0.198 | 0.877 | 0.325
3 | NCI-H1944 | 0.997 | 0.841 | 0.952 | 0.985 | 0.941 | 0.985 | 1.01 | 0.443 | 0.433 | 0.39 | 0.505 | 0.439 | 0.58 | 0.603 | 0.635 | 0.382 | 0.911 | 0.356
4 | NCI-H2126 | 1.06 | 0.994 | 1.02 | 1.08 | 1.03 | 0.963 | 1.02 | 0.954 | 0.787 | 0.717 | 0.609 | 0.954 | 0.717 | 0.659 | 0.676 | 0.624 | 0.875 | 0.492
5 | NCI-H2170 | 1.01 | 0.906 | 0.815 | 0.895 | 1.09 | 0.946 | 1.05 | 1 | 0.698 | 0.589 | 0.745 | 0.684 | 0.275 | 0.264 | 0.309 | 0.278 | 0.991 | 0.749
6 | SW 1573 | 0.916 | 1.06 | 0.989 | 1.05 | 1.08 | 0.923 | 0.899 | 1.03 | 0.61 | 0.525 | 0.623 | 0.548 | 0.759 | 0.914 | 0.775 | 0.741 | 0.899 | 0.463
7 | EPLC-272H | 1.01 | 0.971 | 0.785 | 0.964 | 1.03 | 0.827 | 1.02 | 1.01 | 0.371 | 0.31 | 0.258 | 0.249 | 0.354 | 0.402 | 0.318 | 0.403 | 0.509 | 0.234
8 | NCI-H1563 | 1.01 | 0.815 | 0.988 | 1.04 | 0.991 | 1.06 | 0.976 | 1.07 | 0.742 | 0.675 | 0.791 | 0.676 | 0.751 | 0.785 | 0.601 | 0.639 | 0.971 | 0.732
9 | NCI-H2342 | 0.988 | 0.856 | 1.06 | 1.1 | 0.987 | 1.07 | 0.903 | 1.09 | 0.548 | 0.504 | 0.715 | 0.737 | 0.771 | 0.857 | 0.796 | 0.796 | 0.864 | 0.532
10 | NCI-H1651 | 0.939 | 0.953 | 1.02 | 0.948 | 1.02 | 0.985 | 0.998 | 1.06 | 0.666 | 0.748 | 0.714 | 0.736 | 0.523 | 0.57 | 0.559 | 0.566 | 0.977 | 0.724
11 | NCI-H23 | 0.913 | 0.85 | 0.642 | 0.919 | 1.07 | 0.87 | 1.1 | 1.16 | 0.602 | 0.471 | 0.435 | 0.486 | 0.655 | 0.654 | 0.714 | 0.774 |  | 
12 | NCI-H1993 | 0.945 | 0.966 | 1.12 | 1.4 | 0.876 | 0.874 | 1.04 | 0.862 | 0.498 | 0.433 | 0.565 | 0.56 | 0.646 | 0.529 | 0.523 | 0.563 | 0.913 | 0.468
13 | NCI-H2405 | 0.931 | 0.7 | 0.898 | 0.961 | 1.09 | 0.941 | 0.978 | 1.12 | 0.696 |  | 0.548 | 0.626 | 1.11 | 1.04 | 1.04 | 1.2 |  | 
14 | NCI-H661 | 0.967 | 0.94 | 0.986 | 0.958 | 1.02 | 0.98 | 1.04 | 1.1 | 0.709 | 0.676 | 0.682 | 0.675 | 0.766 | 0.877 | 0.932 | 0.971 | 0.988 | 0.785
15 | HCC-366 | 1.04 | 0.725 | 0.993 | 1.11 | 1.06 | 0.969 | 0.98 | 0.587 | 0.988 | 0.501 | 0.773 | 1.08 | 0.171 | 0.149 | 0.203 | 0.165 | 0.734 | 0.109
